# From patent publication US20260265233A1, “BENZOTHIOPHENE DERIVATIVES AS RXFP1 AGONISTS” (BRISTOL-MYERS SQUIBB COMPANY, priority 2021, published 2026)
# Target: T1, human RXFP1 (Homo sapiens, UniProt Q9HBX9)
# T1 construct: expressed in transfected cells
# T1 sequence (Q9HBX9 1-757): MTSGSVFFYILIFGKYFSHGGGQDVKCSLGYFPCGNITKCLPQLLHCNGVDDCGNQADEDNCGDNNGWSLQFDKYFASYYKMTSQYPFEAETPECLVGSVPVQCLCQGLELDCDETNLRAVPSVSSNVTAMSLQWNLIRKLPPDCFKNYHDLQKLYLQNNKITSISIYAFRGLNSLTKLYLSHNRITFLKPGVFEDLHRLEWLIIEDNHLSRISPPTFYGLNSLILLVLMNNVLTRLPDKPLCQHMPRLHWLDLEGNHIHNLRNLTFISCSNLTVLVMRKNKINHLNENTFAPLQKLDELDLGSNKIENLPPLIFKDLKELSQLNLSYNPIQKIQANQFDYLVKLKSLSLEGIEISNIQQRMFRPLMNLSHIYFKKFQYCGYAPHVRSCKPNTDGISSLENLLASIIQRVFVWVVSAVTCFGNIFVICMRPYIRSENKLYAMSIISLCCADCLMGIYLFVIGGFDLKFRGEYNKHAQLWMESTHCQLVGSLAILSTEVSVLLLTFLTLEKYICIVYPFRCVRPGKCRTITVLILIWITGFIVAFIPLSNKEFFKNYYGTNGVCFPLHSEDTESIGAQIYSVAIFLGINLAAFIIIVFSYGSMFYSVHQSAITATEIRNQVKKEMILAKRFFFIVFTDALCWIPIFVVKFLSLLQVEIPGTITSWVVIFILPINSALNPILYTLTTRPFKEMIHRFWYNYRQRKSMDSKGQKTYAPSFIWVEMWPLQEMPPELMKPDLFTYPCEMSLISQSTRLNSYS
# Test: hRXFP1 HEK293 cAMP assay (HTRF)
# Type: cell-based
# Conditions: HEK293 cells stably expressing human RXFP1; 30 min at rt; intracellular cAMP by HTRF
# Procedure, shortened: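 HEK293 cells stably expressing human RXFP1 treated 30 min at rt with compound (0.010 nM to 50 μM, 2% DMSO) in HBSS/HEPES buffer with 0.5 mM IBMX. Intracellular cAMP measured by HTRF (665/590 nm ratio) against a cAMP standard curve; potency fitted by 4-parameter logistic.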
row,EC50,SMILES
1,607 nM,"COc1ccc(C2CCCN(C3COC3)C2)cc1C(=O)Nc1c(C(=O)Nc2ccc(F)c(C(F)(F)F)c2)sc2cc(C(F)(F)F)ccc12 (centres unmarked) [Example 97, N-(4-fluoro-3-(trifluoromethyl)phenyl)-3-(2-methoxy-5-(1-(oxetan-3-yl)piperidin-3-yl)benzamido)-6-(trifluoromethyl) benzo[b] thiophene-2-carboxamide]"
2,186 nM,"COc1ccc(C2CCCN(C(=O)C3CCC3)C2)cc1C(=O)Nc1c(C(=O)Nc2ccc(F)c(C(F)(F)F)c2)sc2cc(C(F)(F)F)ccc12 (centres unmarked) [Example 98, 3-(5-(1-(cyclobutane-carbonyl)piperidin-3-yl)-2-methoxy-benzamido)-N-(4-fluoro-3-(trifluoromethyl)phenyl)-6-(trifluoromethyl) benzo[b] thiophene-2-carboxamide]"
3,1370 nM,"CNC(=O)CN1CCCC(c2ccc(OC)c(C(=O)Nc3c(C(=O)Nc4ccc(F)c(C(F)(F)F)c4)sc4cc(C(F)(F)F)ccc34)c2)C1 (centres unmarked) [Example 99, N-(4-fluoro-3-(trifluoromethyl)phenyl)-3-(2-methoxy-5-(1-(2-(methylamino)-2-oxoethyl)piperidin-3-yl)benzamido)-6-(trifluoromethyl) benzo[b] thiophene-2-carboxamide]"
4,2010 nM,"COc1ccc(C2CCCN(CCS(C)(=O)=O)C2)cc1C(=O)Nc1c(C(=O)Nc2ccc(F)c(C(F)(F)F)c2)sc2cc(C(F)(F)F)ccc12 (centres unmarked) [Example 100, N-(4-fluoro-3-(trifluoromethyl)phenyl)-3-(2-methoxy-5-(1-(2-(methylsulfonyl)ethyl)piperidin-3-yl)benzamido)-6-(trifluoromethyl) benzo[b] thiophene-2-carboxamide]"
5,2230 nM,"COc1ccc(C2CCCN(CC(O)CO)C2)cc1C(=O)Nc1c(C(=O)Nc2ccc(F)c(C(F)(F)F)c2)sc2cc(C(F)(F)F)ccc12 (centres unmarked) [Example 102, 3-(5-(1-(2,3-dihydroxypropyl)piperidin-3-yl)-2-methoxy-benzamido)-N-(4-fluoro-3-(trifluoromethyl)phenyl)-6-(trifluoromethyl) benzo[b] thiophene-2-carboxamide]"
6,277 nM,"COc1ccc(C2CCCN(C(=O)C(C)(C)O)C2)cc1C(=O)Nc1c(C(=O)Nc2ccc(F)c(C(F)(F)F)c2)sc2cc(C(F)(F)F)ccc12 (centres unmarked) [Example 104, N-[4-fluoro-3-(trifluoromethyl)phenyl]-3-{5-[1-(2-hydroxy-2-methylpropanoyl)piperidin-3-yl]-2-methoxy-benzamido}-6-(trifluoromethyl)-1-benzothiophene-2-carboxamide]"
7,248 nM,"COc1ccc(C2CC3(C2)CN(C2COC2)C3)cc1C(=O)Nc1c(C(=O)Nc2ccc(F)c(C(F)(F)F)c2)sc2cc(C(F)(F)F)ccc12 [Example 106, N-(4-fluoro-3-(trifluoromethyl)phenyl)-3-(2-methoxy-5-(2-(oxetan-3-yl)-2-azaspiro[3.3]heptan-6-yl)benzamido)-6-(trifluoromethyl) benzo[b] thiophene-2-carboxamide]"
8,509 nM,"COc1ccc(C2CC3(C2)CN(C(=O)CC(C)(C)O)C3)cc1C(=O)Nc1c(C(=O)Nc2ccc(F)c(C(F)(F)F)c2)sc2cc(C(F)(F)F)ccc12 [Example 109, N-(4-fluoro-3-(trifluoromethyl)phenyl)-3-(5-(2-(3-hydroxy-3-methylbutanoyl)-2-azaspiro[3.3]heptan-6-yl)-2-methoxy-benzamido)-6-(trifluoromethyl) benzo[b] thiophene-2-carboxamide]"
9,144 nM,"COc1cc(F)c(C#CCO)cc1C(=O)Nc1c(C(=O)Nc2ccc(F)c(C(F)(F)F)c2)sc2cc(C(F)(F)F)ccc12 [Example 110, N-(4-fluoro-3-(trifluoromethyl)phenyl)-3-(4-fluoro-5-(3-hydroxyprop-1-yn-1-yl)-2-methoxy-benzamido)-6-(trifluoromethyl) benzo[b] thiophene-2-carboxamide]"
10,28.3 nM,"COc1ccc(-c2cc(S(=O)(=O)NC(C)(C)C)ccc2F)cc1C(=O)Nc1c(C(=O)Nc2ccc(F)c(C(F)(F)F)c2)sc2cc(C(F)(F)F)ccc12 [Example 111, 3-(5′-(N-(tert-butyl)sulfamoyl)-2′-fluoro-4-methoxy-[1,1′-biphenyl]-3-carboxamido)-N-(4-fluoro-3-(trifluoromethyl)phenyl)-6-(trifluoromethyl) benzo[b] thiophene-2-carboxamide]"
11,650 nM,"CCS(=O)(=O)Nc1cncc(-c2ccc(OC)c(C(=O)Nc3c(C(=O)Nc4ccc(F)c(C(F)(F)F)c4)sc4cc(C(F)(F)F)ccc34)c2)c1 [Example 116, 3-(5-(5-(ethylsulfonamido)pyridin-3-yl)-2-methoxy-benzamido)-N-(4-fluoro-3-(trifluoromethyl)phenyl)-6-(trifluoromethyl) benzo[b] thiophene-2-carboxamide]"
12,131 nM,"COc1ccc(-c2cncc(NS(C)(=O)=O)c2)cc1C(=O)Nc1c(C(=O)Nc2ccc(F)c(C(F)(F)F)c2)sc2cc(C(F)(F)F)ccc12 [Example 117, N-(4-fluoro-3-(trifluoromethyl)phenyl)-3-(2-methoxy-5-(5-(methyl-sulfonamido)pyridin-3-yl)benzamido)-6-(trifluoromethyl) benzo[b] thiophene-2-carboxamide]"
13,255 nM,"COc1ccc(-c2ccc(N3CCNCC3)nc2)cc1C(=O)Nc1c(C(=O)Nc2ccc(F)c(C(F)(F)F)c2)sc2cc(C(F)(F)F)ccc12 [Example 118, N-(4-fluoro-3-(trifluoromethyl)phenyl)-3-(2-methoxy-5-(6-(piperazin-1-yl)pyridin-3-yl)benzamido)-6-(trifluoromethyl) benzo[b] thiophene-2-carboxamide]"
14,282 nM,"COc1ccc(-c2cccc(S(=O)(=O)N(C)C)c2)cc1C(=O)Nc1c(C(=O)Nc2ccc(F)c(C(F)(F)F)c2)sc2cc(C(F)(F)F)ccc12 [Example 119, 3-(3′-(N,N-dimethyl-sulfamoyl)-4-methoxy-[1,1′-biphenyl]-3-carboxamido)-N-(4-fluoro-3-(trifluoromethyl)phenyl)-6-(trifluoromethyl) benzo[b] thiophene-2-carboxamide]"
15,228 nM,"COc1ccc(-c2cccc(C(C)(C)O)c2)cc1C(=O)Nc1c(C(=O)Nc2ccc(F)c(C(F)(F)F)c2)sc2cc(C(F)(F)F)ccc12 [Example 120, N-(4-fluoro-3-(trifluoromethyl)phenyl)-3-(3′-(2-hydroxypropan-2-yl)-4-methoxy-[1,1′-biphenyl]-3-carboxamido)-6-(trifluoromethyl) benzo[b] thiophene-2-carboxamide]"
16,111 nM,"COc1ccc(-c2cccc(CNS(C)(=O)=O)c2)cc1C(=O)Nc1c(C(=O)Nc2ccc(F)c(C(F)(F)F)c2)sc2cc(C(F)(F)F)ccc12 [Example 121, N-(4-fluoro-3-(trifluoromethyl)phenyl)-3-(4-methoxy-3′-(methylsulfon-amidomethyl)-[1,1′-biphenyl]-3-carboxamido)-6-(trifluoromethyl) benzo[b] thiophene-2-carboxamide]"
17,236 nM,"COc1ccc(-c2cccc(NS(C)(=O)=O)c2)cc1C(=O)Nc1c(C(=O)Nc2ccc(F)c(C(F)(F)F)c2)sc2cc(C(F)(F)F)ccc12 [Example 123, N-(4-fluoro-3-(trifluoromethyl)phenyl)-3-(4-methoxy-3′-(methylsulfon-amido)-[1,1′-biphenyl]-3-carboxamido)-6-(trifluoromethyl) benzo[b] thiophene-2-carboxamide]"
18,560 nM,"COc1ccc(C#CC(C)(C)O)cc1C(=O)Nc1c(C(=O)Nc2ccc(F)c(C(F)(F)F)c2)sc2cc(C(F)(F)F)ccc12 [Example 124, N-(4-fluoro-3-(trifluoromethyl)phenyl)-3-(5-(3-hydroxy-3-methylbut-1-yn-1-yl)-2-methoxybenz-amido)-6-(trifluoromethyl) benzo[b] thiophene-2-carboxamide]"
19,254 nM,"COc1ccc(-c2ccc(N3CCOCC3)nc2)cc1C(=O)Nc1c(C(=O)Nc2ccc(F)c(C(F)(F)F)c2)sc2cc(C(F)(F)F)ccc12 [Example 127, N-(4-fluoro-3-(trifluoromethyl)phenyl)-3-(2-methoxy-5-(6-morpholino-pyridin-3-yl)benzamido)-6-(trifluoromethyl) benzo[b] thiophene-2-carboxamide]"
20,237 nM,"COc1ccc(-c2cc(C(=O)O)ccc2F)cc1C(=O)Nc1c(C(=O)Nc2ccc(F)c(C(F)(F)F)c2)sc2cc(C(F)(F)F)ccc12 [Example 128, 6-fluoro-3′-((2-((4-fluoro-3-(trifluoromethyl)phenyl)carbamoyl)-6-(trifluoromethyl)benzo[b]thiophen-3-yl)carbamoyl)-4′-methoxy-[1,1′-biphenyl]-3-carboxylic acid]"
